From patent US8133880B2, “Purine derivatives and methods of use thereof” (Inotek Pharmaceuticals Corporation, priority 2004, dated 2012)

Columns and labels:
Assay type in all cases: in vivo
mice = assay: TPA-induced dermatitis of the ear (ear weight, MPO); details: for Right ear (treated) Mean Weight: 10 μL topical, biopsy six hours after application, normal saline 20.2; for Right ear (treated) MPO: ear biopsy six hours after application, normal saline 18.4; for Difference (right minus left ear weight): normal saline 10.1; for Difference (MPO right minus left ear): normal saline 16.8; for Left ear (untreated) MPO / Left ear (untreated) Mean Weight: left ear DMSO vehicle only
Method: Dermatitis was induced in the right ear of unanesthetized mice via the topical application of 12-O-tetradecanoylphorbol-13-acetate (TPA) (10 μL, 1% in DMSO) on both the inner and outer surfaces of the right ear. The left ear of each mouse had only vehicle (DMSO, 10 μL) topically applied on both the inner and outer surfaces.
Immediately after application of TPA, the mice were topically treated on the inner and outer surfaces of their right ear only with either: (1) Compound 43 (10 μL, 0.1% in normal saline), (2) Compound 43 (10 μL, 0.3% in normal saline), or (3) normal saline (10 μL).
Six hours after the application of Compound 43 or normal saline, the animals were euthanized using CO2 asphyxiation and a ¼ inch biopsy of both the left and right ear was taken and weighed. The biopsy samples were then analyzed for myloperoxidase (MPO) activity as a marker of neutrophil infiltration using standard methods.

BALB/c mice [1] = assay: Asthma-associated inflammation: OVA aerosol exposure and bronchioalveolar lavage
Method: Four-week old male, viral-antibody-free BALB/c mice (Jackson Laboratory, Bar Harbor, Me.) were intraperitoneally immunized with 10 μg ovalbumin (“OVA,” Grade III, Sigma Chemical Co., St. Louis, Mo.) and 1 mg alum (diluted from 2% Alhydrogel; Accurate Sci. Corp., Westbury, N.Y.) in 0.5 mL phosphate-buffered saline (“PBS”) on days 0 and 7. Control mice received 1 mg alum in PBS solution on days 0 and 7.
On day 14, both immunized mice and control mice received a single aerosol exposure to 3% OVA (in PBS) for 30 minutes, followed by intraperitoneal administration of Compound 34 (5 μg per mouse in 0.2 mL buffer solution). About 18 hours after treatment, the mice were sacrificed and bronchioalveolar lavage (“BAL”) was performed on their lungs. The fluid obtained from the mice via the BAL procedure was analyzed and the inflammatory cell counts and level of inflammatory mediators in the fluid samples was measured as described in Virag et al., Med. Sci. Monit. 10:BR77-83 (2004).
On day 14, both immunized mice and control mice received a single aerosol exposure to 3% OVA (in PBS) for 30 minutes, followed by intraperitoneal administration of Compound 24 (5 μg per mouse in 0.2 mL buffer solution). About 18 hours after treatment, the mice were sacrificed and bronchioalveolar lavage (“BAL”) was performed on their lungs. The fluid obtained from the mice via the BAL procedure was analyzed and the inflammatory cell counts and level of inflammatory mediators in the fluid samples was measured as described in Virag et al., Med. Sci. Monit. 10:BR77-83 (2004).

BALB/c mice [2] = assay: LPS-induced chemokine and cytokine response (serum TNF-α, MIP-1α by ELISA); details: for Serum TNF-α mean / Serum MIP-1α mean: serum ninety minutes after LPS
Method: (§1) Male BALB/c mice were intraperitoneally administered Compound 54 (at a dose of either 0.3 mg/kg or 1.0 mg/kg) over a 30-minute period. Lipopolysaccharide (LPS) was then administered intraperitoneally at a dose of 1 mg/kg. Ninety minutes after LPS administration, serum was collected and the levels of MIP-1α and TNF-α were analyzed using specific ELISA.
as §1, with “34” for “54”, “0.03” for “either 0.3”, “0.1” for “1.0”, “30 minute” for “30-minute”

Swiss Webster mice = assay: Dextran sodium sulfate-induced colitis; details: for visual score (1-4) of colon damage: 1 = no damage, 4 = extensive damage, vehicle 2; for Colon Length: twice daily by gavage, seven days with DSS, vehicle 3.97; for MDA / MPO: colon biopsy; for MDA: vehicle 8.7; for MPO: vehicle 209
Method: Colitis was induced in Swiss Webster mice by administration of dextran sodium sulfate (DSS) (5%, dissolved in distilled water, molecular weight 30-40 kDa) ad libitum for a total period of seven days. During this seven-day period, and concomitant with the administration of DSS, the mice were separately administered Compound 54 twice daily by gavage at a total daily dose of 0.1 mg/kg/day, 0.3 mg/kg/day or 1 mg/kg/day. At the end of the seventh day of administration of both DSS and Compound 54, the mice were euthanized and their colon was removed, measured, visually analyzed and colon biopsy samples were analyzed for malondialdehyde (MDA) and myeloperoxidase (MPO) levels.

[3] = animals given 0.1% on the right ear
[4] = animals given 0.3% on the right ear
[5] = 5 μg per mouse i.p., BAL fluid about 18 hours after treatment

Structure (SMILES): CCNC(=O)[C@H]1O[C@@H](n2cnc3c(N)nc(N/N=C/[C@H]4CCC=CO4)nc32)[C@H](O)[C@@H]1O [Compound 43]
- MPO levels in the treated right ears (mice; 0.1% and 0.3% topical, compared to TPA and normal saline): decreased
- elevated weight in the right ear caused by the TPA-induced dermatitis (mice; 0.1% and 0.3% topical, compared to animals receiving normal saline only): reduced in a dose-dependent fashion
- Right ear (treated) Mean Weight (mice; 0.1% in normal saline): 17.7 mg
- Right ear (treated) MPO (mice; 0.1% topical): 1.04 ug/sample
- Difference (right minus left ear weight) (mice; 0.1% topical): 5.3 mg
- Difference (MPO right minus left ear) (mice; 0.1% topical): 0.67
- Right ear (treated) Mean Weight (mice; 0.3% in normal saline): 13.6 mg
- Right ear (treated) MPO (mice; 0.3% topical): 3.34 ug/sample
- Difference (right minus left ear weight) (mice; 0.3% topical): 0.1 mg
- Difference (MPO right minus left ear) (mice; 0.3% topical): 1.65
- Left ear (untreated) MPO (mice; [3]): 0.37 ug/sample
- Left ear (untreated) Mean Weight (mice; [3]): 12.4 mg
- Left ear (untreated) MPO (mice; [4]): 1.69 ug/sample
- Left ear (untreated) Mean Weight (mice; [4]): 13.5 mg

Structure (SMILES): CCNC(=O)[C@H]1O[C@@H](n2cnc3c(N)nc(N/N=C/C4CCC=CO4)nc32)[C@H](O)[C@@H]1O (mixture of isomers) [Compound 34]
- inflammatory cell infiltration into the BAL fluid, reduction (BALB/c mice [1]; 5 μg per mouse i.p. after OVA aerosol, BAL about 18 hours after treatment, treated vs. control animals, p<0.01): 70±19%
- MIP-1α levels, reduction relative to control (BALB/c mice [1]; [5]): 74%
- TNF-α levels, reduction relative to control (BALB/c mice [1]; [5]): 30%
- white blood cell counts, reduction relative to control (BALB/c mice [1]; [5]): 70%
- MIP-1α (BALB/c mice [1]; BAL fluid, 5 μg per mouse i.p., untreated mice 58 ± 19): 15 ± 5 pg/mL
- TNF-α (BALB/c mice [1]; BAL fluid, 5 μg per mouse i.p., untreated mice 81 ± 27): 56 ± 18 pg/mL
- Serum TNF-α mean (BALB/c mice [2]; 0.03 mg/kg i.p. before LPS 1 mg/kg i.p., LPS alone 1949): 814 pg/mL
- Serum MIP-1α mean (BALB/c mice [2]; 0.03 mg/kg i.p. before LPS 1 mg/kg i.p., LPS alone 2544): 1182 pg/mL
- LPS-induced increase in TNF-α and MIP-1α (BALB/c mice [2]; 0.03 mg/kg or 0.1 mg/kg i.p.): dose-dependently reduces
- Serum TNF-α mean (BALB/c mice [2]; 0.1 mg/kg i.p. before LPS 1 mg/kg i.p., LPS alone 1949): 552 pg/mL
- Serum MIP-1α mean (BALB/c mice [2]; 0.1 mg/kg i.p. before LPS 1 mg/kg i.p., LPS alone 2544): 981 pg/mL

Structure (SMILES): CNC(=O)[C@H]1O[C@@H](n2cnc3c(NC)nc(C#N)nc32)[C@H](O)[C@@H]1O [Compound 54]
- colon shortening (Swiss Webster mice; 0.1, 0.3 or 1 mg/kg/day, compared to animals treated with vehicle): protected against colon shortening
- levels of MDA and MPO (Swiss Webster mice; 0.1, 0.3 or 1 mg/kg/day, dose-dependent, compared to animals treated with vehicle): lowered
- visual score (1-4) of colon damage (Swiss Webster mice; Dose 0.1 mg/ml): 1.5
- Colon Length (Swiss Webster mice; Dose 0.1 mg/ml): 4.95 cm
- visual score (1-4) of colon damage (Swiss Webster mice; Dose 0.3 mg/ml): 1.2
- Colon Length (Swiss Webster mice; Dose 0.3 mg/ml): 5.51 cm
- visual score (1-4) of colon damage (Swiss Webster mice; Dose 1 mg/ml): 1.4
- Colon Length (Swiss Webster mice; Dose 1 mg/ml): 5.87 cm
- MDA (Swiss Webster mice; Dose 0.1 mg/ml): 7.4 nmol/mg protein
- MPO (Swiss Webster mice; Dose 0.1 mg/ml): 345 mμ/mg protein
- MDA (Swiss Webster mice; Dose 0.3 mg/ml): 7.4 nmol/mg protein
- MPO (Swiss Webster mice; Dose 0.3 mg/ml): 138 mμ/mg protein
- MDA (Swiss Webster mice; Dose 1 mg/ml): 4.4 nmol/mg protein
- MPO (Swiss Webster mice; Dose 1 mg/ml): 30 mμ/mg protein
- Serum MIP-1α mean (BALB/c mice [2]; 0.3 mg/kg i.p. before LPS 1 mg/kg i.p., LPS alone 4150): 4298 pg/mL
- Serum TNF-α mean (BALB/c mice [2]; 0.3 mg/kg i.p. before LPS 1 mg/kg i.p., LPS alone 9741): 5733 pg/mL
- LPS-induced increase in TNF-α and MIP-1α (BALB/c mice [2]; 0.3 mg/kg or 1.0 mg/kg i.p.): dose-dependently reduces
- Serum MIP-1α mean (BALB/c mice [2]; 1.0 mg/kg i.p. before LPS 1 mg/kg i.p., LPS alone 4150): 3906 pg/mL
- Serum TNF-α mean (BALB/c mice [2]; 1.0 mg/kg i.p. before LPS 1 mg/kg i.p., LPS alone 9741): 3727 pg/mL
